# Assay results taken from PMC2234497 (The Journal of General Physiology, 2004).
# Columns and labels:
# [1] = target: T1, homomeric (CNGA1) rod CNG channels (Bos taurus, UniProt Q00194); format: cell-based, bovine
# T1 sequence (Q00194 1-690): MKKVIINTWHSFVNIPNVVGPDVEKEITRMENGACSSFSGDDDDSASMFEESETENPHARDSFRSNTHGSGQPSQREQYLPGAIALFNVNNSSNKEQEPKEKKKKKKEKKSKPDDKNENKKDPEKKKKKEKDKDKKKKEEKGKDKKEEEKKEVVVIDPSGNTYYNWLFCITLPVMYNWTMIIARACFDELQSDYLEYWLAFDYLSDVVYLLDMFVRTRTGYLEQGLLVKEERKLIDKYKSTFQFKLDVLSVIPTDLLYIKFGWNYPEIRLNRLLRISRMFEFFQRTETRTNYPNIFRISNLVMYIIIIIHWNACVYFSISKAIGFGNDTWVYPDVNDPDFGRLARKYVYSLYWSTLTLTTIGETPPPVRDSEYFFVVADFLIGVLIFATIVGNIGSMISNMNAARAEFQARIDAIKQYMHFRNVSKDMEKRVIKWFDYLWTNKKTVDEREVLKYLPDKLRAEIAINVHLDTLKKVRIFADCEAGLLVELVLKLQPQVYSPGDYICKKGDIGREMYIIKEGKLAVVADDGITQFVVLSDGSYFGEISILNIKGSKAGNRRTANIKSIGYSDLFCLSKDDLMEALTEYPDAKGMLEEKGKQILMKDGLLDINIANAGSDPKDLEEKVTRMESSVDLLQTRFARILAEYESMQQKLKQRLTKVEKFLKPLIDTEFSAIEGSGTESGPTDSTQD
# [2] = target: T1, homomeric (CNGA1) rod CNG channels; details: cited from earlier work
# [3] = target: heteromeric (CNGA1 + CNGB1) rod CNG channels (Bos taurus, UniProt Q00194+Q28181); details: ref Chen et al., 1993; cited from earlier work
# [4] = model fit of cGMP dose–response without ATR
# Sequence of heteromeric (CNGA1 + CNGB1) rod CNG channels (Q28181 whole entry, one chain of several): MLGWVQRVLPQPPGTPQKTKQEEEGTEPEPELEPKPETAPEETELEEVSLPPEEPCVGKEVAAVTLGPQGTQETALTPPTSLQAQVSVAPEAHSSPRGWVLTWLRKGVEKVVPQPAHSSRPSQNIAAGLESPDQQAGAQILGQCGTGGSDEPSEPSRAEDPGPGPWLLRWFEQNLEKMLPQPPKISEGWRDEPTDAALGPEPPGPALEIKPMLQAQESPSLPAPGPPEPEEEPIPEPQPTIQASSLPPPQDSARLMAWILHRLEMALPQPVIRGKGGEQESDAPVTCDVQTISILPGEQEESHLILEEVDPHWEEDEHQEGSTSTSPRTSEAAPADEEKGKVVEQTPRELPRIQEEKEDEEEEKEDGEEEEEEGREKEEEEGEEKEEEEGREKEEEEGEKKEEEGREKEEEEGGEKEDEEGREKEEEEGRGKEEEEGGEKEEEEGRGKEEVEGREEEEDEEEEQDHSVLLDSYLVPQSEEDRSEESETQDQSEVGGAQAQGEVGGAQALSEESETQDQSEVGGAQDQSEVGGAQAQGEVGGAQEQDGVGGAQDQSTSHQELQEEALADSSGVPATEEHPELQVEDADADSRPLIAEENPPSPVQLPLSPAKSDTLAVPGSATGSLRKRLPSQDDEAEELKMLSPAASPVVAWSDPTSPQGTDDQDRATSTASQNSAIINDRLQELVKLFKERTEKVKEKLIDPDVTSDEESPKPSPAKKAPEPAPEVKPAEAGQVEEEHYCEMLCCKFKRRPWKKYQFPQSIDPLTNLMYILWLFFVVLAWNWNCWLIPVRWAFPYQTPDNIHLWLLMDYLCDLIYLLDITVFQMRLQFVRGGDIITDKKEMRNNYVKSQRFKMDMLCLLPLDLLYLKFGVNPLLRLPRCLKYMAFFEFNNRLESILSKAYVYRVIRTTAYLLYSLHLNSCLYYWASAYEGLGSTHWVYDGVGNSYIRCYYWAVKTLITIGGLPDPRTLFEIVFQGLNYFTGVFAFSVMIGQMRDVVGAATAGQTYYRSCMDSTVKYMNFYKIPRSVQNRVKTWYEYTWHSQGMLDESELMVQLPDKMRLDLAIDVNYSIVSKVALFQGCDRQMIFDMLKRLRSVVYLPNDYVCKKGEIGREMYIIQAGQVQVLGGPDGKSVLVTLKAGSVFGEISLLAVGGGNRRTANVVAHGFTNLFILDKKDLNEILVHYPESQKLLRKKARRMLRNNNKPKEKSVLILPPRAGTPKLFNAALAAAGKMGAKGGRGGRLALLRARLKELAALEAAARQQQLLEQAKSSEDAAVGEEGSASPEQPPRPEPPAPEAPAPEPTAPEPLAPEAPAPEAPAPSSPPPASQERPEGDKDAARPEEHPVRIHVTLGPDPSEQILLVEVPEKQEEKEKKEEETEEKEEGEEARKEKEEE
structure (smiles),measurement,setting,value
Nc1nc2c(ncn2[C@@H]2O[C@@H]3COP(=O)(O)O[C@H]3[C@H]2O)c(=O)[nH]1 [cGMP],open probability predicted by KcN and L,"[1]; 2 mM cGMP, no ATR",0.95
same,"KcN, association constant for cyclic nucleotide binding",[1]; [4],"7,200 M^−1"
same,"L, equilibrium constant for the allosteric opening transition of the fully liganded channel",[1]; [4],19.8
CC1=C(/C=C/C(C)=C/C=C/C(C)=C/CO)C(C)(C)CCC1 [all-trans-retinol],inhibition of the rod CNG channel,"[2]; ref Dean et al., 2002",inhibited quite well
COc1ccc([C@H]2Sc3ccccc3N(CCN(C)C)C(=O)[C@H]2OC(C)=O)cc1 (relative stereo) [l-cis-diltiazem],block of heteromeric channels,[3],sensitively blocks
same,effect on homomeric channels,"[2]; ref Chen et al., 1993",little effect
